In brackets after ≈: the same amount, converted by molar mass.
Legend:
Format in all cases: functional
Streptococcus pneumoniae [1] = assay: Minimum inhibitory concentration against Streptococcus pneumoniae 5979 strain
Streptococcus pneumoniae [2] = assay: Minimum inhibitory concentration against Streptococcus pneumoniae ATCC 6303 (erythromycin-susceptible strain)
Staphylococcus aureus [3] = assay: Minimum inhibitory concentration against Staphylococcus aureus A5177 (erythromycin-resistant strain
Staphylococcus aureus [4] = assay: Minimum inhibitory concentration against Staphylococcus aureus 6538P (erythromycin-susceptible strain)
Streptococcus pneumoniae [5] = assay: Minimum inhibitory concentration against Streptococcus pneumoniae 5649 strain
Streptococcus pyogenes [6] = assay: Minimum inhibitory concentration against Streptococcus pyogenes EES61 (erythromycin-susceptible strain)
Haemophilus influenzae = assay: Minimum inhibitory concentration against Haemophilus influenzae GYR1435 (erythromycin susceptible strain)
Streptococcus pyogenes [7] = assay: Minimum inhibitory concentration against Streptococcus pyogenes 930 (erythromycin-resistant strain)

Structure (SMILES) | MIC (Streptococcus pneumoniae [1]) | MIC (Streptococcus pneumoniae [2]) | MIC (Staphylococcus aureus [3]) | MIC (Staphylococcus aureus [4]) | MIC (Streptococcus pneumoniae [5]) | MIC (Streptococcus pyogenes [6]) | MIC (Haemophilus influenzae) | MIC (Streptococcus pyogenes [7])
CC[C@H]1OC(=O)[C@H](C)C(=O)[C@H](C)[C@@H](O[C@@H]2O[C@H](C)C[C@H](N(C)C)[C@H]2O)[C@@](C)(OC)C[C@@H](C)C2=NCCN3C(=O)O[C@@]1(C)[C@H]3[C@H]2C | > 128 µg/mL | 0.06 µg/mL (≈ 0.0941 µM) | 0.1 µg/mL (≈ 0.157 µM) | 0.1 µg/mL (≈ 0.157 µM) | 1 µg/mL (≈ 1.57 µM) | 0.06 µg/mL (≈ 0.0941 µM) | 4 µg/mL (≈ 6.27 µM) | > 128 µg/mL
CC[C@H]1OC(=O)[C@H](C)C(=O)[C@H](C)[C@@H](O[C@@H]2O[C@H](C)C[C@H](N(C)C)[C@H]2O)[C@@](C)(OCC#Cc2ccccc2)C[C@@H](C)C2=NCCN3C(=O)O[C@@]1(C)[C@H]3[C@H]2C | > 128 µg/mL | 0.03 µg/mL (≈ 0.0407 µM) | 0.2 µg/mL (≈ 0.271 µM) | 0.2 µg/mL (≈ 0.271 µM) | 0.5 µg/mL (≈ 0.678 µM) | 0.06 µg/mL (≈ 0.0813 µM) | 8 µg/mL (≈ 10.8 µM) | 64 µg/mL (≈ 86.7 µM)
CC[C@H]1OC(=O)[C@H](C)C(=O)[C@H](C)[C@@H](O[C@@H]2O[C@H](C)C[C@H](N(C)C)[C@H]2O)[C@@](C)(OCC#CCCc2ccc(-c3cccs3)cc2)C[C@@H](C)C2=NCCN3C(=O)O[C@@]1(C)[C@H]3[C@H]2C | 0.125 µg/mL (≈ 0.147 µM) | 0.015 µg/mL (≈ 0.0177 µM) | 0.5 µg/mL (≈ 0.59 µM) | 1 µg/mL (≈ 1.18 µM) | 0.25 µg/mL (≈ 0.295 µM) | ≤ 0.008 µg/mL | 8 µg/mL (≈ 9.43 µM) | 0.5 µg/mL (≈ 0.59 µM)
CC[C@H]1OC(=O)[C@H](C)C(=O)[C@H](C)[C@@H](O[C@@H]2O[C@H](C)C[C@H](N(C)C)[C@H]2O)[C@@](C)(OCC#CCCc2ccc(-c3ccccn3)cc2)C[C@@H](C)C2=NCCN3C(=O)O[C@@]1(C)[C@H]3[C@H]2C | 0.03 µg/mL (≈ 0.0356 µM) | ≤ 0.008 µg/mL | 0.25 µg/mL (≈ 0.297 µM) | 0.25 µg/mL (≈ 0.297 µM) | 0.06 µg/mL (≈ 0.0712 µM) | ≤ 0.008 µg/mL | 2 µg/mL (≈ 2.37 µM) | 0.5 µg/mL (≈ 0.593 µM)
CC[C@H]1OC(=O)[C@H](C)C(=O)[C@H](C)[C@@H](O[C@@H]2O[C@H](C)C[C@H](N(C)C)[C@H]2O)[C@@](C)(OCC#Cc2cnc3ccccc3c2)C[C@@H](C)C2=NCCN3C(=O)O[C@@]1(C)[C@H]3[C@H]2C | 2 µg/mL (≈ 2.53 µM) | ≤ 0.004 µg/mL | 0.1 µg/mL (≈ 0.127 µM) | 0.1 µg/mL (≈ 0.127 µM) | 0.25 µg/mL (≈ 0.317 µM) | 0.015 µg/mL (≈ 0.019 µM) | 2 µg/mL (≈ 2.53 µM) | 1 µg/mL (≈ 1.27 µM)
CC[C@H]1OC(=O)[C@@](C)(F)C(=O)[C@H](C)[C@@H](O[C@@H]2O[C@H](C)C[C@H](N(C)C)[C@H]2O)[C@@](C)(OCC#Cc2cnc3c(F)cccc3c2)C[C@@H](C)C2=NCCN3C(=O)O[C@@]1(C)[C@H]3[C@H]2C | 0.125 µg/mL (≈ 0.152 µM) | ≤ 0.008 µg/mL | 0.125 µg/mL (≈ 0.152 µM) | 0.25 µg/mL (≈ 0.303 µM) | 0.125 µg/mL (≈ 0.152 µM) | ≤ 0.008 µg/mL | 4 µg/mL (≈ 4.85 µM) | 0.25 µg/mL (≈ 0.303 µM)
CC[C@H]1OC(=O)[C@H](C)C(=O)[C@H](C)[C@@H](O[C@@H]2O[C@H](C)C[C@H](N(C)C)[C@H]2O)[C@@](C)(OCC#Cc2ccc(-c3cccs3)cc2)C[C@@H](C)C2=NCCN3C(=O)O[C@@]1(C)[C@H]3[C@H]2C | ≤ 0.008 µg/mL | ≤ 0.008 µg/mL | 0.03 µg/mL (≈ 0.0366 µM) | 0.5 µg/mL (≈ 0.61 µM) | ≤ 0.008 µg/mL | ≤ 0.008 µg/mL | 2 µg/mL (≈ 2.44 µM) | 4 µg/mL (≈ 4.88 µM)
CC[C@H]1OC(=O)[C@H](C)C(=O)[C@H](C)[C@@H](O[C@@H]2O[C@H](C)C[C@H](N(C)C)[C@H]2O)[C@@](C)(OCC#Cc2cnc3c(OC)cccc3c2)C[C@@H](C)C2=NCCN3C(=O)O[C@@]1(C)[C@H]3[C@H]2C | 8 µg/mL (≈ 9.77 µM) | ≤ 0.008 µg/mL | 0.06 µg/mL (≈ 0.0733 µM) | 0.25 µg/mL (≈ 0.305 µM) | 0.06 µg/mL (≈ 0.0733 µM) | ≤ 0.008 µg/mL | 2 µg/mL (≈ 2.44 µM) | 4 µg/mL (≈ 4.88 µM)

Reference: ChEMBL document CHEMBL1145260, “Design, synthesis and structure-activity relationships of 6-O-arylpropargyl diazalides with potent activity against multidrug-resistant Streptococcus pneumoniae” (2005)
